Entries after “also recorded” stand apart in the source; their conditions may differ. Where two headings read alike, the source gives them in different places.
Assays:
[1] = tested on: breast (MCF-7) and (LS-174T) colon cancer cell lines; assay: growth inhibition of breast (MCF-7) and colon (LS-174T) cancer cell lines; type: cell-based, human; conditions: 50 micromolar
[2] = tested on: MDA-MB-231; assay: growth of MDA-MB-231 cells; type: cell-based; conditions: Homo sapiens, MDA-MB-231, 72 h; 1 mM, 3 days
Method: (§1) M is marker proteins of known molecular weight.
(§2) All breast cancer cell lines were grown in IMEM supplemented with 10% fetal bovine serum, 20 mM HEPES, penicillin-streptomycin, and extra glutamine. Colon carcinoma cell lines were grown in EMEM supplemented with 10% FBS, EMEM, NEAA, HEPES 20 mM, extra glutamine, and penicillin-streptomycin. The cells were grown at 37° C. in humidified incubators in an atmosphere of 5% CO2.
(§3) For cell growth experiments, 2-3×10^5 cells/60 mm dish were seeded, and 24 hours later (Day 0), the medium was removed, and fresh medium and the additives were added then and every 48 hours thereafter The compounds of the present invention were added using 100× concentrated stock solutions. At desired times, cell counts in duplicate were performed on a Coulter counter after harvesting the cells with gentle trypsinization.

[3] = tested on: R^I and R^II cAMP receptor proteins in breast (MDA-MB-231) and colon (LS-174T) cancer cells; assay: R^I and R^II cAMP receptor protein levels in breast and colon cancer lines (FIG. 6); type: cell-based, human; conditions: DBcAMP 1 mM
Method: as §1
(§4) The incubations were carried out at 23° C. for 60 minutes in 96-well immunoplates. The reaction mixtures were then irradiated for 30 seconds at 254 nm, placing a Mineralite UVS-11 hand lamp directly onto the plate. The samples were mixed with 25 microliters of 3× sample buffer (3% SDS, 15% beta-mercaptoethanol, 30 mM Tris, 30% glycerol, 1% bromophenol blue saturated solution), boiled for 3 minutes, and centrifuged at 700×g for five minutes. The samples containing 50-100 micrograms of protein were subjected to 0.05% SDS-12% PAGE. The gels were fixed, dried, and exposed to X-ray films overnight. The protein concentrations were determined by the method of Lowry et al., (J. Biol. Chem. 193: 265-275, 1951) with bovine serum albumin as standard.

[4] = tested on: R^I cAMP receptor protein (MDA-MB-231); assay: photoaffinity labelling of R^I cAMP receptor protein, MDA-MB-231; type: cell-based, human; conditions: 1 mM, 3 days; control 1.0
Method: as §1, §4
(§5) The levels of the receptor proteins are expressed relative to the R^I level in the untreated control cells of MDA-MB-231 and LS-174T, which are each set equal to 1.0 O.D.; the scale was expanded to differentiate the lower intensity bands.

[5] = tested on: c-myc protein; assay: c-myc protein level, Western blotting (FIG. 9B); type: cell-based, human; conditions: 1 mmol/L, three days
Method: The cells were grown in suspension culture in RPMI 1640 medium supplemented with 10% fetal bovine serum, penicillin (50 U/ml), streptomycin ([…]), 10 mmol/L HEPES buffer, and extra glutamine. […] Surface antigen analysis of HL-60 cells was performed by flow cytometry using a panel of monoclonal antibodies reactive with either myeloid cells or monocytic cells. Terminal deoxynucleotidyl transferase (TdT) was assayed by an immunoperoxidase method using a TdT fluorescence kit. Western blotting of c-myc protein was performed using c-myc antibody 15206D11 (Scripps Clinic and Research Foundation, LaJolla, Calif.).
(§6) M marker proteins of known molecular weight. […] The resulting supernatants were used as cell lysates. […] ND=nondetectable.

[6] = tested on: R^II cAMP receptor protein (LS-174T); assay: photoaffinity labelling of R^II cAMP receptor protein, LS-174T; type: cell-based, human; conditions: 1 mM, 3 days; relative to control R^I
Method: as §1, §4, §5

[7] = tested on: cultured human fibroblasts; conditions: cited from earlier work
[8] = tested on: Molt-4; assay: growth inhibition of Molt-4; type: cell-based, human
[9] = tested on: hormone-dependent breast cancer lines; conditions: millimolar concentrations; previously reported; cited from earlier work
[10] = tested on: hormone-dependent mammary tumors / DMBA-induced mammary carcinomas; conditions: cited from earlier work
[11] = tested on: R^I cAMP receptor protein (LS-174T); assay: photoaffinity labelling of R^I cAMP receptor protein, LS-174T; type: cell-based, human; conditions: 1 mM, 3 days; control 1.0
Method: as §1, §4, §5

[12] = tested on: transplantable DMBA-1 and MNA-2 rat mammary carcinomas; assay: short-term assays with transplantable rat mammary carcinomas; type: in vivo; conditions: DB-cAMP pellet
[13] = tested on: DMBA-induced mammary carcinomas; assay: in vivo growth of DMBA-induced mammary carcinomas in rats; set-up: species or system rat; conditions: DBcAMP treatment
Method: […] |DMBA-induced mammary carcinomas in rats […] | 10 mg. cholesterol), was implanted on day 0 and day 14.

[14] = tested on: neuroblastoma cells; conditions: conflicting studies; cited from earlier work
[15] = tested on: p21 ras protein (MCF-7 cells); assay: Western blotting of p21 ras protein in MCF-7 cells; type: cell-based, human; conditions: 500 microM
Method: Western blotting of p21 protein was performed as described below. […] V is cell lysate from Ha-MuSV-transformed NIH3T3 clone 13-3B-4. M, marker proteins of known molecular weight.
Cellular proteins present in cell extracts were separated by 12% SDS-PAGE and transferred to nitrocellulose sheets in transfer buffer (25 mM Tris, 192 mM glycine, 20% methanol, pH 7.4). Nitrocellulose sheets were washed and first incubated with 3% bovine serum albumin in NTE-NP40 (50 mM Tris-HCl, pH 7.5, 150 mM NaCl, 2 mM EDTA, 0.1% Nonidet P-40) for three hours at 37° C. and then sequentially incubated with medium containing p21 monoclonal antiserum Y13-259 directed against the Ha-MuSV-encoded p21 for sixteen hours at 4° C., rabbit anti-rat IgG for 2.5 hours in an ice-water bath, and 5×10^5 cpm/ml ^125 I-protein A for one hour in an ice-water bath. The nitrocellulose sheets were air-dried and exposed to Kodak XAR film for 12-36 hours at -20° C. Comparison of the resulting autoradiograms with others in which normal rat serum was substituted for p21 monoclonal antibody permitted identification of p21. To provide a reference p21, cell lysates were prepared from NIH 3T3 clone 13-3B-4 that had been transfected with Ha-MuSV DNA.
The levels of p21 protein are expressed relative to the p21 level in the untreated control cells, which is set equal to 1.0 O.D.

[16] = tested on: LS-174T; assay: growth of LS-174T cells; type: cell-based; conditions: Homo sapiens, LS174T, 72 h; 1 mM, 3 days
Method: as §1, §2, §3

[17] = tested on: human oat cell lung carcinoma cells; conditions: in vitro; cited from earlier work
[18] = tested on: spindle cell sarcoma with multiple metastasis; conditions: cited from earlier work
[19] = tested on: DMBA-1; assay: growth of transplantable DMBA-1 rat mammary carcinoma; type: in vivo; conditions: pellet with 10 mg cAMP analogue, day 7
Method: DMBA-1, a variant of primary hormonedependent DMBA tumor,
hormoneindependent and transplantable.
8Cl-cAMP and DBcAMP were given as a 20mg pellet consisting of 10 mg of […]

[20] = tested on: R^I cAMP receptor protein (Molt-4); assay: R^I cAMP receptor protein in Molt-4 leukemic cells; type: cell-based, human; conditions: 1 mmol/L, three days
Source text: as §6

[21] = tested on: R^II cAMP receptor protein (MDA-MB-231); assay: photoaffinity labelling of R^II cAMP receptor protein, MDA-MB-231; type: cell-based, human; conditions: 1 mM, 3 days; relative to control R^I
Method: as §1, §4, §5

SMILES: CCCC(=O)Nc1ncnc2c1ncn2[C@@H]1O[C@@H]2COP(=O)(O)O[C@H]2[C@H]1OC(=O)CCC [DBcAMP, N^6,O^2' -dibutyryl-cAMP]
- growth inhibition, in words [1]: no growth inhibition
- activity at 1000 µM [2]: 100%
- R^I and R^II receptor levels, in words [3]: remained unchanged; also recorded: did not appreciably affect the R^I or R^II receptor levels
- R^I relative level [4]: 1.0 ± 0.1
- c-myc protein level, in words [5]: did not affect the c-myc protein level
- R^II relative level [6]: 0.15 ± 0.02
- DNA synthesis ([7]; added during first eight hours after serum addition): subsequent DNA synthesis was not delayed
- DNA synthesis ([7]; added more than eight hours after serum addition): inhibitory
- 50% growth inhibition, in words [8]: 50% growth inhibition could not be obtained
- growth inhibition, hormone-dependent breast cancer lines [9]: growth inhibition only in the hormone-dependent breast cancer lines
- cAMP binding and cAMP-dependent protein kinase activity ([10]; cytosol and nuclei, during growth arrest): increase
- estrogen binding ([10]; during growth arrest): estrogen binding decreases
- translated p21 protein ([10]; preceding regression): sharp reduction
- tumor regression ([10]; rat, in vivo): regression of hormone-dependent mammary tumors
- R^I relative level [11]: 0.80 ± 0.10
- sensitivity of tumors [12]: completely resistant
- tumor growth, in words [13]: only arrests this tumor growth without producing regression
- tumorigenicity [14]: reported to be decreased; also recorded: unaltered
- p21 level, in words [15]: slight reduction in p21 level
- activity at 1000 µM [16]: 85%
- differentiation [17]: differentiated into neurone-like cells
- tumor size ([18]; 3-6 mg/kg i.v. daily over five hours, days 1-9 and 47-56): plateaued and even decreased during both infusion periods
- histology of tumors ([18]; biopsies days 2, 14, 60): evidence of differentiation during the DBcAMP infusion
- Change in mean tumor volume [19]: 2.60 cm^3
- Change in mean tumor volume (%) ([19]; none = 100): 99%
- R^I receptor protein, in words [20]: remained without appreciable change
- R^II relative level [21]: 0.07 ± 0.01
